Assay type in all cases: physicochemical
Data set [1] in a line: Solubility measurement in various solvents at 50° C. (Procedure 2). The protocol: (§1) The solubility of Compound 1 Di-Hydrochloric Acid Salt Form I was measured according to Procedure 1 for solubility in 25° C. (Table 5) and Procedure 2 for 50° C. [table] [table]
Data set [2] is described as follows: Competitive slurry experiments, stability relationship of polymorphs in 10% water/acetone. The protocol:
To evaluate the transformation of Compound 1 Di-Hydrochloric Acid Salt solid forms, competitive slurry experiments at 25±1° C. and 60±1° C. in the solvent of 10% water/acetone were performed with a mixture of eight polymorphs (Form I, and Form III through Form IX) as described in Table 23 and Table 24. [table] [table]

Data set [3] can be described thus: Solubility measurement in various solvents at 25° C. (Procedure 1). Particulars: thermodynamic from solid. The protocol: as §1
[4] abbreviates: 2% water in acetone, organic solvent or mixture.
The mark [5] stands for this setting: 2% water in acetonitrile, organic solvent or mixture.
Setting [6] is: 2-methoxyethanol, organic solvent or mixture.
Setting [7] is: 5% water in acetone, organic solvent or mixture.
[8] abbreviates: 5% water in acetonitrile, organic solvent or mixture.
Where [9] appears, read: 10% water in acetone, organic solvent or mixture.
Setting [10] is: 10% water in acetonitrile, organic solvent or mixture.
[11] abbreviates: DMF, organic solvent or mixture.
Setting [12] is: DMSO, organic solvent or mixture.
[13] abbreviates: EtOH, organic solvent or mixture.
The mark [14] stands for this setting: IPA, organic solvent or mixture.
Setting [15] is: MeCN, organic solvent or mixture.
[16] abbreviates: acetone, organic solvent or mixture.
Setting [17] is: chloroform, organic solvent or mixture.

On to `Cl.Cl.Cn1c(C(=O)Nc2cccc(-c3cccc(NC(=O)c4nc5c(n4C)CCN(CCC46CCC(C(=O)O)(CC4)C6)C5)c3Cl)c2Cl)nc2c1CCN(CCC13CCC(C(=O)O)(CC1)C3)C2` [4,4′-(((((2,2′-dichloro-[1,1′-biphenyl]-3,3′-diyl)bis(azanediyl))bis(carbonyl))bis(1-methyl-1,4,6,7-tetrahydro-5H-imidazo[4,5-c]pyridine-2,5-diyl))bis(ethane-2,1-diyl))bis(bicyclo[2.2.1]heptane-1-carboxylic acid) di-hydrochloric acid salt], for which the solubility (as a rule, the dissolved amount per volume that the medium holds) in data set [1] (1,4-dioxane, organic solvent or mixture) came out at 10 µg/mL; in data set [1] (1-propanol, organic solvent or mixture), 1120 µg/mL; in data set [1] (setting [4]), 110 µg/mL; in data set [1] (setting [5]) it was 10 µg/mL; in data set [1] (setting [6]), 28300 µg/mL; in data set [1] (setting [7]), 560 µg/mL. For the same compound, the solubility in data set [1] (setting [8]) was 1210 µg/mL; in data set [1] (setting [9]) it was 5710 µg/mL; in data set [1] (setting [10]) it was 6610 µg/mL; in data set [1] (setting [11]) it was 5480 µg/mL; in data set [1] (setting [12]) it was over 50000 µg/mL; in data set [1] (setting [13]) it was 1100 µg/mL. The solubility was determined as 980 µg/mL in data set [1] (setting [14]); 150 µg/mL in data set [1] (MEK, organic solvent or mixture); 10 µg/mL in data set [1] (MIBK, organic solvent or mixture); 10 µg/mL in data set [1] (setting [15]); 40 µg/mL in data set [1] (THF, organic solvent or mixture, thermodynamic from solid); 10 µg/mL in data set [1] (setting [16]). Moreover, the solubility was over 50000 µg/mL in data set [1] (setting [17]); 22100 µg/mL in data set [1] (methanol, organic solvent or mixture, thermodynamic from solid); 420 µg/mL in data set [1] (organic solvent or mixture, thermodynamic from solid, n-BuOH, solid phase Form IV); 14800 µg/mL in data set [1] (thermodynamic from solid, Water, solid phase Form VI); 50 µg/mL in data set [3] (setting [4]); 10 µg/mL in data set [3] (setting [5]). In addition, the solubility worked out at 16900 µg/mL in data set [3] (setting [6]); 320 µg/mL in data set [3] (setting [7]); 1040 µg/mL in data set [3] (setting [8]); 2300 µg/mL in data set [3] (setting [9]); 3640 µg/mL in data set [3] (setting [10]); 2980 µg/mL in data set [3] (setting [11]). Besides, the solubility in data set [3] (setting [12]) was over 50000 µg/mL; in data set [3] (setting [13]), 390 µg/mL; in data set [3] (setting [14]), 650 µg/mL; in data set [3] (IPAc, organic solvent or mixture), 10 µg/mL; in data set [3] (setting [15]), 20 µg/mL; in data set [3] (THF, organic solvent or mixture) it was 50 µg/mL. For the same compound, the solubility is 10 µg/mL in data set [3] (setting [16]); over 50000 µg/mL in data set [3] (setting [17]); 710 µg/mL in data set [3] (organic solvent or mixture, 1-Propanol, solid phase Form V); 18800 µg/mL in data set [3] (organic solvent or mixture, Methanol, solid phase Form III); 460 µg/mL in data set [3] (organic solvent or mixture, n-BuOH, solid phase Form IV); 12900 µg/mL in data set [3] (Water, solid phase Form VI). In addition, in data set [2] (10% water/acetone at 25 and 60° C., competitive slurry), the “Relative stability of polymorphic forms” value is recorded as “most stable polymorphic form”.
As for `Cl.Cl.Cn1c(C(=O)Nc2cccc(-c3cccc(NC(=O)c4nc5c(n4C)CCN(CCC46CCC(C(=O)O)(CC4)C6)C5)c3Cl)c2Cl)nc2c1CCN(CCC13CCC(C(=O)O)(CC1)C3)C2` [Form III, 4,4′-(((((2,2′-dichloro-[1,1′-biphenyl]-3,3′-diyl)bis(azanediyl))bis(carbonyl))bis(1-methyl-1,4,6,7-tetrahydro-5H-imidazo[4,5-c]pyridine-2,5-diyl))bis(ethane-2,1-diyl))bis(bicyclo[2.2.1]heptane-1-carboxylic acid) di-hydrochloric acid salt], the “Polymorph transformation in competitive slurry (XRPD)” value in data set [2] (mixture of polymorphs stirred in 10% water/acetone at 25±° C. for 20 hours and at 60±° C. for 2 h) is recorded as “converted to Form I”.
